In patent US20110288086A1, “POLYCYCLIC QUINAZOLINES, PREPARATION THEREOF, AND USE THEREOF” (priority 2010, published 2011):

Columns and labels:
[1] = tested on: PANC-1 human pancreatic cancer cells; assay: Tumor cell inhibition ratio, CCK-8 kit, PANC-1; conditions: PANC-1, read-out: Antiproliferative effect (inhibition ratio) PANC-1
Excerpt: (§1) The inhibitory activities of the compounds on tumor cells in vitro

[2] = tested on: A549 human lung cancer cells; assay: Tumor cell inhibition ratio, CCK-8 kit, A549; conditions: A549, read-out: Antiproliferative effect (inhibition ratio) A549
Excerpt: as §1

EGFR tyrosine kinase = EGFR tyrosine kinase (Homo sapiens, UniProt P00533); assay: EGFR tyrosine kinase inhibition in vitro (Invitrogen EGFR inhibitor screening kit PV3193)
Excerpt: The inhibitory activities of EGFR tyrosine kinase in vitro
Erlotinib hydrochloride was used as a positive control drug.

[3] = tested on: Jurkat E6-1 human T-cell lymphoma; assay: Tumor cell inhibition ratio, CCK-8 kit, Jurkat E6-1; conditions: Jurkat E6.1, read-out: Antiproliferative effect (inhibition ratio) E6-1
Excerpt: as §1

[4] = tested on: Hut78 T-Lymphocytic Leukemia cells; assay: Tumor cell inhibition ratio, CCK-8 kit, Hut78; conditions: Homo sapiens, HuT78, read-out: Antiproliferative effect (inhibition ratio) Hut-78
Excerpt: as §1

[5] = tested on: PC-3 human carcinoma of prostate; assay: Tumor cell inhibition ratio, CCK-8 kit, PC-3; conditions: read-out: Antiproliferative effect (inhibition ratio) PC-3
Excerpt: as §1

[6] = tested on: MDA-MB-435s human breast carcinoma cells; assay: Tumor cell inhibition ratio, CCK-8 kit, MDA-MB-435s; conditions: read-out: Antiproliferative effect (inhibition ratio) 435s
Excerpt: as §1

[7] = tested on: Hep3B2.1-7 human hepatoma carcinoma cells; assay: Tumor cell inhibition ratio, CCK-8 kit, Hep3B; conditions: read-out: Antiproliferative effect (inhibition ratio) Hep3B
Excerpt: as §1

aurora kinase B = biological target: T1, aurora kinase B (Homo sapiens, UniProt Q96GD4); assay: Aurora kinase B inhibition in vitro (Invitrogen aurora kinase screening kit PV3174); format: biochemical
T1 construct: purchased Invitrogen PV3174

[8] = tested on: Colo320 human rectal cancer cells; assay: Tumor cell inhibition ratio, CCK-8 kit, Colo320; conditions: COLO 320, read-out: Antiproliferative effect (inhibition ratio) Colo320
Excerpt: as §1

[9] = tested on: K562 human chronicity marrow leukemic cells; assay: Tumor cell inhibition ratio, CCK-8 kit, K562; conditions: K562, read-out: Antiproliferative effect (inhibition ratio) K562
Excerpt: as §1

T1 sequence (Q96GD4 whole entry): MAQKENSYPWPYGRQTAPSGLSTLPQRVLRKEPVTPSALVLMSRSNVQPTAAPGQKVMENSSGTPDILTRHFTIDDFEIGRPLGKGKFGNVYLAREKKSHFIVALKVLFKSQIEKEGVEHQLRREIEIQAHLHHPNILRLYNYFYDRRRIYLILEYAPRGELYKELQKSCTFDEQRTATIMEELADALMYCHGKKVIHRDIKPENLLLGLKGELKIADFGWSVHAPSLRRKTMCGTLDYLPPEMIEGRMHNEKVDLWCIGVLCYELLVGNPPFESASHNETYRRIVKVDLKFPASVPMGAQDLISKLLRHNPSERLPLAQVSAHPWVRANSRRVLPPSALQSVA
Chain of EGFR tyrosine kinase (P00533 25-1210): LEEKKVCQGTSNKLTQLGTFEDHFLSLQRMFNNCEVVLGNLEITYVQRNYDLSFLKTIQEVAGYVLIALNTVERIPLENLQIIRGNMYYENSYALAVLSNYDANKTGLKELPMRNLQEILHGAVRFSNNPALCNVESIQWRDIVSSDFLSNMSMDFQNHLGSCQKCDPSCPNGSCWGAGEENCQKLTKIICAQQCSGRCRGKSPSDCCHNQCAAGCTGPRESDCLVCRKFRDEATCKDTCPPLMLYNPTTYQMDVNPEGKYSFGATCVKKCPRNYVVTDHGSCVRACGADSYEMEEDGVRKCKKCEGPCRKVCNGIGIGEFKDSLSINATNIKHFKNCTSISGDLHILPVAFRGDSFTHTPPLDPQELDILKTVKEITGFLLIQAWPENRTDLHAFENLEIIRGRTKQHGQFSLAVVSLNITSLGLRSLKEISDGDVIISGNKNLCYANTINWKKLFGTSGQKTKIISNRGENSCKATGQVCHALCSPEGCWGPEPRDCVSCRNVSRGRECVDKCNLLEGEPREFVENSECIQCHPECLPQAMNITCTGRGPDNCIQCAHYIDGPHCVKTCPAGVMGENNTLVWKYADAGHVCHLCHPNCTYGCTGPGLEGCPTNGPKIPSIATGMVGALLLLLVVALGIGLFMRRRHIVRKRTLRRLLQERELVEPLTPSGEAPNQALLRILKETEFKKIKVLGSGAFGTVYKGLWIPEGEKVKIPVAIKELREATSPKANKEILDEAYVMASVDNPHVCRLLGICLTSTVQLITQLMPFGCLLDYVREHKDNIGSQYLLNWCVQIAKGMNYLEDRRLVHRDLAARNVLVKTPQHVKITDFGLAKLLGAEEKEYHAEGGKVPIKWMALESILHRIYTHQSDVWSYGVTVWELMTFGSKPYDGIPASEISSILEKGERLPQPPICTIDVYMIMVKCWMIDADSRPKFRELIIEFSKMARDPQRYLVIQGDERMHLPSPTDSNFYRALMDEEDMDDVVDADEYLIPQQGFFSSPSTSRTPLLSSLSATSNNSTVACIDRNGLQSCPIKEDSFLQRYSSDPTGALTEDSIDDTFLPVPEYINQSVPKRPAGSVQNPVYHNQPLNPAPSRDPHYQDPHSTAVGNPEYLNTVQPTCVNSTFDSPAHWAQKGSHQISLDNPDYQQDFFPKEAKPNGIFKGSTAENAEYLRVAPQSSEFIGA

Row | The inhibition ratio of the compound on EGFR(%) (EGFR tyrosine kinase; 40 μM) | The inhibition ratio of the compound on EGFR(%) (EGFR tyrosine kinase; 200 μM) | The inhibition ratio of the compound on Aurora B(%) (aurora kinase B; 40 μM) | The inhibition ratio of the compound on Aurora B(%) (aurora kinase B; 200 μM) | Structure (SMILES) | inhibition at 10 µM [1] [%] | inhibition at 100 µM [1] [%] | inhibition at 10 µM [2] [%] | inhibition at 100 µM [2] [%] | inhibition at 10 µM [3] [%] | inhibition at 100 µM [3] [%] | inhibition at 10 µM [4] [%] | inhibition at 100 µM [4] [%] | inhibition at 10 µM [5] [%] | inhibition at 100 µM [5] [%] | inhibition at 10 µM [6] [%] | inhibition at 100 µM [6] [%] | inhibition at 10 µM [7] [%] | inhibition at 100 µM [7] [%] | inhibition at 10 µM [8] [%] | inhibition at 100 µM [8] [%] | other results
1 | 25.2 | 74.6 | 35.1 | 74.6 | COCCOc1cc2c(cc1OCCOC)C1=Nc3cccc([N+](=O)[O-])c3CN1C=N2 [Compound V-5, 9-nitro-2,3-bis(2-methoxyethoxy)-8H-quinazolino[4,3-b]quinazoline] | 17.1 | 80.3 | 59.8 | 92.5 | 34.8 | 78.9 | 43.8 | 63.5 | 32.5 | 63.6 | 48.9 | 87.2 | 22.3 | 54.4 | 51.7 | 84.9 | inhibition at 10 µM [9]: 23.6%; inhibition at 100 µM [9]: 78.3%
2 | 36.2 | 80.5 | 23.2 | 91.7 | COCCOc1cc2c(cc1OCCOC)C1=Nc3cccc(C#N)c3CN1C=N2 [Compound V-7, 9-cyano-2,3-bis(2-methoxyethoxy)-8H-quinazolino[4,3-b]quinazoline] | 40.7 | 86.6 | 27.7 | 83.6 | 34.6 | 75.4 | 32.1 | 62.4 | 15.9 | 90.3 | 38 | 81.4 | 40.4 | 89.5 | 42.1 | 81.4 | inhibition at 10 µM [9]: 24.3%; inhibition at 100 µM [9]: 61.7%
3 | 13.0 | 60.3 | 17.6 | 60.5 | COCCOc1cc2c(cc1OCCOC)C1=Nc3cccc(C(F)(F)F)c3CN1C=N2 [Compound V-9, 9-trifluoromethyl-2,3-bis(2-methoxyethoxy)-8H-quinazolino[4,3-b]quinazoline] | 11.7 | 55.6 | 33.7 | 87.5 | 20.4 | 65.4 | 19.2 | 70.5 | 16.4 | 78 | 54.9 | 80.7 | 40.1 | 82.8 | 46.3 | 73.3 | inhibition at 10 µM [9]: 34.6%; inhibition at 100 µM [9]: 79.9%
4 | 30.8 | 78.5 | 20.8 | 73.6 | COCCOc1cc2c(cc1OCCOC)C1=Nc3cccc(OC)c3CN1C=N2 [Compound V-10, 9-methoxy-2,3-bis(2-methoxyethoxy)-8H-quinazolino[4,3-b]quinazoline] | 36.5 | 96.9 | 28.8 | 82.8 | 51.8 | 84.2 | 41.1 | 72.2 | 9.39 | 91.7 | 29.6 | 65.1 | 31.9 | 72.2 | 10.8 | 72.8 | inhibition at 10 µM [9]: 47.5%; inhibition at 100 µM [9]: 85%
5 | 45.2 | 87.9 | 23.2 | 76.9 | COCCOc1cc2c(cc1OCCOC)C1=Nc3ccc(OCc4cccc(F)c4)c(Cl)c3CN1C=N2 [Compound V-14, 9-chloro-10-(3-fluoro-benzyloxy)-2,3-bis(2-methoxyethoxy)-8H-quinazolino[4,3-b]quinazoline] | 38.3 | 99.9 | 31.1 | 97.8 | 26.9 | 97.7 | 21.3 | 98.7 | 38.5 | 97.1 | 46.6 | 94.8 | 45.1 | 100 | 17.6 | 88 | inhibition at 10 µM [9]: 36.6%; inhibition at 100 µM [9]: 100%
6 | 21.7 | 80.1 | 21.5 | 78.1 | COCCOc1cc2c(cc1OCCOC)C1=Nc3cc(F)ccc3CN1C=N2 [Compound V-16, 11-fluoro-2,3-bis(2-methoxyethoxy)-8H-quinazolino[4,3-b]quinazoline] | 22.4 | 99.9 | 50.7 | 70.2 | 56.6 | 97.3 | 44.3 | 99.6 | 53.5 | 98.9 | 48.9 | 66.2 | 30.3 | 74.6 | 52.7 | 99.4 | inhibition at 10 µM [9]: 53.6%; inhibition at 100 µM [9]: 93.8%
7 | 25.4 | 70.6 | 26.4 | 84.3 | COCCOc1cc2c(cc1OCCOC)C1=Nc3cc(C#N)ccc3CN1C=N2 [Compound V-17, 11-cyano-2,3-bis(2-methoxyethoxy)-8H-quinazolino[4,3-b]quinazoline] | 19.6 | 56.8 | 49.9 | 87.1 | 33.7 | 79.6 | 35.9 | 45.3 | 28.1 | 91.7 | 37.5 | 95.5 | 58.4 | 85.2 | 9.66 | 26.1 | inhibition at 10 µM [9]: 19.1%; inhibition at 100 µM [9]: 25.2%
